According to PubChem BioAssay (NCI):
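Tested at 5 concentrations; 48 h exposure; 96-well plates; endpoints linearly interpolated, else capped at highest concentration. Abbreviation: GI50, concentration required for 50% inhibition of growth. TGI: total growth inhibition.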

How the values were obtained:
Assay in all cases: inhibition of tumour cell growth, NCI panel, 48 h
ACHN renal = test system: ACHN renal
K-562 leukemia = test system: K-562 leukemia
MOLT-4 leukemia = test system: MOLT-4 leukemia
OVCAR-5 ovarian = test system: OVCAR-5 ovarian
HCT-15 colon = test system: HCT-15 colon
NCI-H226 lung = test system: NCI-H226 lung
MALME-3M melanoma = test system: MALME-3M melanoma
UACC-62 melanoma = test system: UACC-62 melanoma
OVCAR-4 ovarian = test system: OVCAR-4 ovarian
PC-3 prostate = test system: PC-3 prostate

Row | Compound | TGI (ACHN renal) [µM] | TGI (K-562 leukemia) [µM] | TGI (MOLT-4 leukemia) [µM] | TGI (OVCAR-5 ovarian) [µM] | TGI (HCT-15 colon) [µM] | TGI (NCI-H226 lung) [µM] | TGI (MALME-3M melanoma) [µM] | TGI (UACC-62 melanoma) [µM] | TGI (OVCAR-4 ovarian) [µM] | TGI (PC-3 prostate) [µM] | GI50 (ACHN renal) [µM] | GI50 (K-562 leukemia) [µM] | GI50 (MOLT-4 leukemia) [µM] | GI50 (PC-3 prostate) [µM] | GI50 (OVCAR-5 ovarian) [µM] | GI50 (HCT-15 colon) [µM] | GI50 (NCI-H226 lung) [µM] | GI50 (UACC-62 melanoma) [µM] | GI50 (OVCAR-4 ovarian) [µM]
1 | COc1ccc2c(c1)CC[C@@H]1C2CC[C@]2(C)C(=O)NC(=O)CC12 (some centres undefined) | > 100 | > 100 | > 100 | > 100 | > 100 | > 100 | > 100 | > 100 |  |  |  |  |  |  |  |  |  |  | 
2 | CCN(CC)CCCNC(=O)Cc1ccccc1Nc1c(Cl)cccc1Cl | 20.8 | 21.6 | 28 | 23.5 | 29.1 | 38.5 |  | 29.5 | 33.1 |  |  |  |  |  |  |  |  |  | 
3 | CC[C@@H]1OC2(C)CC(S(=O)(=O)c3ccccc3)CC1O2 (some centres undefined) | > 100 | > 100 | > 100 | > 100 | > 100 | > 100 | > 100 | > 100 | > 100 |  |  |  |  |  |  |  |  |  | 
4 | COc1ccc(C2S/C(=C\c3ccc(OC)cc3OC)C(=O)N2NC(=O)Cc2ccccc2)cc1 (centres undefined) | > 100 | > 100 | > 100 | > 100 | > 100 | > 100 | > 100 | > 100 | > 100 |  |  |  |  |  |  |  |  |  | 
5 | Cc1ccc(NC(=O)C(=O)Cc2nc3ccccc3o2)c(C)c1 | > 100 | > 100 |  | > 100 | > 100 | > 100 | > 100 | > 100 | > 100 |  |  |  |  |  |  |  |  |  | 
6 | CCNCC(O)c1ccc(N)c([N+](=O)[O-])c1 (centres undefined) | > 100 | > 100 | > 100 | > 100 | > 100 | > 100 |  | > 100 | > 100 | > 100 |  |  |  |  |  |  |  |  | 
7 | CCOC(=O)C(C)(C)Oc1ccc2c(-c3ccc(Cl)cc3)cc(=O)oc2c1 | > 100 | > 100 | > 100 |  | > 100 | > 100 | > 100 | > 100 | > 100 |  |  |  |  |  |  |  |  |  | 
8 | O=Nc1c(O)ccc2ccccc12 | 7.52 | 16.8 | 28.6 | 3.44 | 15.9 | 33.4 |  | 3.83 | 2.57 | 8.29 | 2.16 | 3.49 | 3.58 | 1.85 | 1.83 | 3.85 | 15.6 | 1.86 | 1.29
9 | CCOC(=O)C(C[Si](C)(C)C)P(=O)(OCC)OCC (centres undefined) | > 100 | > 100 | > 100 | > 100 | > 100 | > 100 | > 100 | > 100 | > 100 |  |  |  |  |  |  |  |  |  | 
10 | O=c1cccccc1NCCCCNc1cccccc1=O | > 100 | > 100 | > 100 | > 100 | > 100 | > 100 | > 100 | > 100 | > 100 |  |  |  |  |  |  |  |  |  | 
11 | C[Si](C)(C)/C=C/CN1C(=O)CCC1O (centres undefined) | > 100 | > 100 | > 100 | > 100 | > 100 | > 100 | > 100 | > 100 | > 100 |  |  |  |  |  |  |  |  |  | 
